Entries after “also recorded” stand apart in the source; their conditions may differ.
Experiments:
T cells = assay: T-cell response in EAE mice (recall proliferation, cytokines, polarization); assay type: in vivo, mouse; settings: for T-cell response: NOD EAE, daily Miglustat
Procedure: FIGS. 9a-d. Depletion of reactive astrocytes reduces the recruitment of peripheral leukocytes to the CNS. (a-d). EAE was induced in WT or GFAP^TK F1 hybrid mice and Ganciclovir (GCV) or vehicle control (PBS) was administered as in FIG. 1b. Data are representative of three independent experiments with n≥7 mice/group (means and s.e.m.). (a) Effect of GCV administration on reactive astrocytes detected by GFAP staining (b) Recruitment of monocytes (red gate) and lymphocytes (green gate) to the CNS assessed by FACS. Data are representative of three independent experiments. Statistical analysis by Student's t-test. (c, d) Effect of the depletion of reactive astrocytes during the chronic phase of EAE on the recall proliferative response to MOG(35-55) or anti-CD3 (c) and the expression of IFN-γ, IL-17A, Foxp3 and IL-10 in splenic CD4+ T cells (d). *P<0.05, and (n.s) not significant.
FIGS. 12a-i. […] (a) Naïve C57BL/6 (Left panel) and NOD (right panel) mice were treated with LacCer (10 μg per mouse) or vehicle as indicated by red arrows, and EAE clinical scores was recorded. At experimental end point (day 25), astrocytes were isolated and their transcriptional profile was determined by nCounter Nanostring analysis. (b-e) EAE was induced in C57BL/6 (b, c) or NOD mice (d, e) and LacCer or vehicle were administrated as in FIGS. 1g and 1h, respectively. Splenic T-cell recall response to MOG(35-55) (20 μg/ml); proliferation (b, d) and secretion of IL-17A, IFN-γ and IL-10 cytokines (c, e). Data are representative of two independent experiments with ≥8 mice/group (mean and s.e.m.). (f-i) EAE NOD mice were treated with PDMP or vehicle during the chronic phase as in FIG. 1K. Data are representative of three independent experiments with n≥8 mice/group (mean and s.e.m.). (f) qPCR analysis of the expression of tbx21, ifng, rorc, il17A, csf2, il10, foxp3, and tgfb1 mRNA of CD3^+CD4^+ T-cells isolated from the CNS; expression is presented relative to gapdh. (g, h) Recall response to MOG(35-55) (20 μg/ml); proliferation (g) and secretion of IL-17A, IFN-γ and IL-10 cytokines (h). (i) Expression of IFN-γ, IL-17A, Foxp3 and IL-10 by splenic CD3^+CD4^+ T cells (mean and s.e.m.).
Splenocytes and lymph node cells were cultured in X-VIVO medium and were plated for 72 h at a density of 5×10^5 cells per well in the presence of MOG35-55 peptide. During the final 16 h, cells were pulsed with […] [3H]thymidine (PerkinElmer), followed by collection on glass fiber filters and analysis of incorporated [3H]thymidine in a-counter (1450 MicroBeta TriLux; PerkinElmer). Supernatants were collect after 48 h of culture for cytokine measurement by enzyme-linked immunosorbent assay^14. For intracellular cytokine staining, cells were stimulated for 6 h with PMA (phorbol 12-myristate 13-acetate; 50 ng/ml; Sigma), ionomycin (1 μg/ml; Sigma) and monensin (GolgiStop; […]; BD Biosciences). After staining of surface markers, cells were fixed and made permeable according to the manufacturer's instructions BD Cytofix/Cytoperm™ Kit (BD Biosciences), or Foxp3 Fixation/Permeabilization (Ebiosceince).

reactive astrocytes = assay: EAE in F1 NOD C57BL/6 GFAP-HSV-TK hybrid mice, depletion of reactive astrocytes; assay type: in vivo, mouse
EAE NOD mice = assay: EAE in NOD mice, progressive phase (clinical score, histopathology, body weight); assay type: in vivo; settings: NOD EAE; for body weight: daily Miglustat
primary astrocytes = assay: Activation of cultured primary astrocytes, mRNA expression; assay type: cell-based, mouse; settings: primary mouse astrocytes activated with LPS/IFNγ; Miglustat
Procedure: FIGS. 3a-m. LacCer produced by B4GALT6 acts in an autocrine manner to boost astrocyte activation. Cultured astrocytes were pre-treated for 1 h with PDMP (25 μM), LacCer (10 μM), both (LacCer+PDMP), or vehicle (vehicle), followed by activation with lipopolysaccharide (100 ng/ml) and Interferon-γ (100 Units/ml) (LPS/IFNγ) or left un-treated (control). (a) Heatmap depicting mRNA expression, as detected by Nanostring nCounter analysis, in astrocytes stimulated with LPS/IFNγ. Representative data of three independent experiments. (b) Histogram presentation of the normalized gene expression presented in (a), statistical analysis by one-way ANOVA followed by Tukey post-hoc analysis. (c-i) The expression of B4galt5 (shB4galt5), B4galt6 (shB4galt6) or non-targeting shRNA (ShControl) in C8-D30 astrocytes was knocked-down using verified shRNA (n≥4). (c) qRT analysis of B4galt5 and B4galt6 mRNA expression. (d-f) astrocytes were activated as in (a) and mRNA expression for (d) H2-Aa, (e) Ccl5 and (f) Cxcl10 was determined; expression is presented relative to house keeping gene (Gapdh) (n≥4). (g) Schematic map of the astrocyte-specific shRNA lentiviral vector. […] NOD mice were injected i.c.v. with 1×10^7 IU of shControl, shB4galt5 or shB4galt6 lentivirus, at day 35 after EAE induction (progressive phase). n=10 mice per group (h, i) 10 days after i.c.v. injection experiment was terminated and (h) b4galt5 and b4galt6 expression levels were determined by qPCR in astrocytes isolated from naïve or EAE NOD mice; expression normalized to gapdh and presented relative to that of cells from naïve mice. Representative data of two independent experiments, Statistical analysis by one-way ANOVA, followed by Tukey post-hoc analysis. (i) LacCer levels were quantified of in the CNS of naïve or EAE NOD mice treated as shown in (j). Statistical analysis by one-way ANOVA, followed by Tukey post-hoc analysis. (j) EAE clinical scores. Representative data of two independent experiments. Statistical analysis as in (FIG. 1a). (k) Cultured primary astrocytes were pre-treated for 1 h with PDMP (25 μM), LacCer (10 μM), both (LacCer+PDMP), or vehicle control (vehicle), followed by activation with LPS/IFNγ for 45 min, or left un-treated (control, Con). IRF-1 and Lamin B expression in the nuclear fraction analyzed by western blot and the degree of IRF-1 translocation to the nucleus was assessed by the ratio between the expression of IRF-1 and Lamin-B in the nuclear fractions following densitometric quantification on four independent experiments (right panel). Statistical analysis by one-way ANOVA, followed by Tukey post-hoc analysis. (l) ChIP analysis of the interaction of NF-κB, and IRF-1 with the) nos2 promoter in primary cultured astrocytes. Experimental design and data analysis as in (FIG. 4c). Data from two independent experiments (m) qPCR analysis of the expression of nos2, csf2, ccl2, ccl5, il6, and tlr2 in astrocyte cultures established from WT or IRF-1 deficient (IRF-1 KO) mice, pre-treated with LacCer or vehicle, and activated with LPS/IFNγ. […]
FIGS. 14a-g. […] (a) Cultured astrocytes were pre-treated for 1 h with PDMP (25 μM), LacCer (10 μM), both (LacCer+PDMP), or vehicle control (vehicle), followed by activation with LPS/IFNγ for 6 h, or left un-treated (control, Con). mRNA expression was analyzed 6 h following activation. qPCR analysis of the expression of cc/5, csf2, nos2, il6, H2-Aa, and tlr2 presented relative to gapdh. […]

inflammatory monocytes = assay: Recruitment of inflammatory monocytes to the CNS of EAE NOD mice (flow cytometry); assay type: in vivo, mouse; settings: daily Miglustat from onset of progressive phase

Row | SMILES | peripheral T-cell response (T cells; GFAP-TK F1 mice, GCV during progressive phase) | EAE scores, astrocyte depletion during the progressive phase (reactive astrocytes; 25 mg/kg daily s.c. days 30-50) | EAE scores, astrocyte depletion during the acute phase (reactive astrocytes; 25 mg/kg daily s.c. from 7 days before induction until day 15) | leukocyte infiltration in the CNS (reactive astrocytes; treatment during progressive phase, FACS) | body weight (EAE NOD mice) | body weight (EAE NOD mice; listed as miglustat) | clinical course of EAE disease progression (EAE NOD mice; daily from onset of progressive phase, oral 1800 or 600 mg/kg, or nasal 900 mg/kg twice a day) | T-cell response (T cells) | T-cell response (T cells; listed as miglustat) | astrocyte activation (primary astrocytes) | recruitment of inflammatory monocytes to the CNS (inflammatory monocytes)
1 | Nc1nc(O)c2ncn(COC(CO)CO)c2n1 [GCV, Ganciclovir] | did not affect | significant amelioration of EAE | significant worsening of EAE | decreased leukocyte infiltration |  |  |  |  |  |  | 
2 | CCCCN1C[C@H](O)[C@@H](O)[C@H](O)[C@H]1CO [Miglustat, N-butyl-deoxynojirimycin] |  |  |  |  | does not affect body weight | did not affect | suppressed the clinical course of disease progression; also recorded: halts chronic EAE progression | does not affect T-cell polarization | did not affect | inhibits astrocyte activation | reduced the recruitment; also recorded: reduces monocytes recruitment
